Experimental data reported in ChEMBL document CHEMBL1201862, “PubChem BioAssay data set” (2004).
Activity calls are given as the source filed them.

Experiments:
Beta-galactosidase = Beta-galactosidase (Escherichia coli, UniProt Q8VNN2); assay: beta-galactosidase enzyme inhibitors and activators, dose response, artefact control for CCR6 antagonist project, biochemical, E. coli enzyme, set 3 (AID 504712); format: functional
[1] = molecular target: T1, Short transient receptor potential channel 4 (Mus musculus, UniProt Q9QUQ5); assay: mouse TRPC4 channel activators, dose response, cell-based, HEK293 TRPC4/mu-opioid, Fluo-4 calcium (AID 434937); format: functional
T1 sequence (Q9QUQ5 whole entry): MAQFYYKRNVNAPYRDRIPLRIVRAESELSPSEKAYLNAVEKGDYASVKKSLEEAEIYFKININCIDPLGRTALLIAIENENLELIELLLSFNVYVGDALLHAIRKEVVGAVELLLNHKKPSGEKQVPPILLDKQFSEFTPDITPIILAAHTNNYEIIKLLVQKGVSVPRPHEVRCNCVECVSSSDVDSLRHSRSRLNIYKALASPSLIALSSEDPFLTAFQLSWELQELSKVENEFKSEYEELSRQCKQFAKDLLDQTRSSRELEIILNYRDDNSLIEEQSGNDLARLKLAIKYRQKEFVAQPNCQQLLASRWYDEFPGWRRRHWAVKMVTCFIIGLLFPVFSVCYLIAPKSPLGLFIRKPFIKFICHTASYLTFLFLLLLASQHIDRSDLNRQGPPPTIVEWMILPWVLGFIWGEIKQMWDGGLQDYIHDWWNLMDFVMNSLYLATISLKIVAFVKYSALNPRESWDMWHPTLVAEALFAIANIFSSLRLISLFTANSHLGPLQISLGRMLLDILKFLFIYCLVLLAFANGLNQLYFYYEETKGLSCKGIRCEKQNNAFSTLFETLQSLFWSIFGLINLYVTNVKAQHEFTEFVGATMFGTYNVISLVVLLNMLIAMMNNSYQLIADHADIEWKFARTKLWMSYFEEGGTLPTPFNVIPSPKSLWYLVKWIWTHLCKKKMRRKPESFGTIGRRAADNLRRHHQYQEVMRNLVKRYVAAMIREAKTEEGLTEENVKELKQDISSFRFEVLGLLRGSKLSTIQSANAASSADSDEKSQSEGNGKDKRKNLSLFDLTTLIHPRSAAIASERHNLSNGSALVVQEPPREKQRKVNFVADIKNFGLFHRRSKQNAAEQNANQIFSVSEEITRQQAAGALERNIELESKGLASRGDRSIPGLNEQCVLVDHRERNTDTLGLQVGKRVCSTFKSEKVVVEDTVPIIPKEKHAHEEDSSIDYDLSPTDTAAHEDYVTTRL

[2] = molecular target: Glyceraldehyde-3-phosphate dehydrogenase (Homo sapiens, UniProt P04406)
[3] = A Cell Based Secondary Assay To Explore Cytotoxicity of Compounds that Sensitize Mycobacterium Tuberculosis to Beta-Lactam Antibiotics.; format: functional
[4] = Luminescence Cell-Based Dose Retest to Confirm Inhibitors of Cancer Stem Cells. [Related pubchem assays (depositor defined):AID2717, AID2721]; format: functional; conditions: Homo sapiens
INS1 = assay: beta cell apoptosis inhibitors, cytokine rescue, dose response, luminescence, retest (AID 449756); format: functional, cell-based; conditions: Rattus norvegicus, INS1;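 note: cell death triggered by IL-1 beta plus TNF-alpha plus IFN-gamma mixture; protective hits raise ATP signal compared with cytokine alone wells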
cells [5] = assay: cells
[6] = molecular target: Voltage-dependent T-type calcium channel subunit alpha-1H (Homo sapiens, UniProt O95180); format: functional;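 note: channel activity triggered by adding a high calcium stimulation buffer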
cells [7] = format: functional
[8] = HEp-2 cell cytotoxicity, dose response, cytotoxicity control for RSV inhibitor project, HTS (AID 2410); format: functional; conditions: human respiratory syncytial virus
[9] = molecular target: T2, Microphthalmia-associated transcription factor (Homo sapiens, UniProt O75030); assay: TRPM1 promoter luciferase signal decrease, dose response, MITF inhibitor project, cell-based, SK-MEL-5, cherry-picked, set 3 (AID 493073); format: functional
T2 sequence (O75030 whole entry): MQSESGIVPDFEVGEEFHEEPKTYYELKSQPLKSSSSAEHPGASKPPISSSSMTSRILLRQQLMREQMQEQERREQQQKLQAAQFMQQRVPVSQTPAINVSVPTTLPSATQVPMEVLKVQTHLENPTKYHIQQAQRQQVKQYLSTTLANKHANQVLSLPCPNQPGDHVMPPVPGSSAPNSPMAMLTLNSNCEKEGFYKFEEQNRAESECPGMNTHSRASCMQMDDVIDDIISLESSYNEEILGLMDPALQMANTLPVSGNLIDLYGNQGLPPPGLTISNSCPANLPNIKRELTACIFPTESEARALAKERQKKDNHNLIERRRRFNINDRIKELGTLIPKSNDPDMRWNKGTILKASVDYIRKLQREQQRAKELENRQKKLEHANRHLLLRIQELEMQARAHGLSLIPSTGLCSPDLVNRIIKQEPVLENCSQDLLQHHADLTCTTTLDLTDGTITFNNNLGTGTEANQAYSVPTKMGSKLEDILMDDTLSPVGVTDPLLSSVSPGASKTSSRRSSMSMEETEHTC

Genome polyprotein = Genome polyprotein (dengue virus type 2, UniProt P29990); assay: Dengue-2 NS5 methyltransferase inhibitors, primary screen, biochemical, confirmation dose response (AID 588689); format: functional
HEK293 [10] = assay: NOD2 signaling inhibitors in MDP-stimulated cells, cell-based, uHTS, luminescence (AID 2001); format: functional; conditions: Homo sapiens
HEK293 [11] = assay: NOD1 signaling inhibitors, primary screen, cell-based, luminescence, uHTS (AID 1578); format: functional; conditions: Homo sapiens
HEK293 [12] = assay: cells; format: functional, cell-based; conditions: Homo sapiens
[13] = molecular target: T3, Nucleotide-binding oligomerization domain-containing protein 1 (Homo sapiens, UniProt Q9Y239); assay: NOD1 signaling inhibitors, SAR follow-up, revised (AID 2333); format: functional
T3 sequence (Q9Y239 whole entry): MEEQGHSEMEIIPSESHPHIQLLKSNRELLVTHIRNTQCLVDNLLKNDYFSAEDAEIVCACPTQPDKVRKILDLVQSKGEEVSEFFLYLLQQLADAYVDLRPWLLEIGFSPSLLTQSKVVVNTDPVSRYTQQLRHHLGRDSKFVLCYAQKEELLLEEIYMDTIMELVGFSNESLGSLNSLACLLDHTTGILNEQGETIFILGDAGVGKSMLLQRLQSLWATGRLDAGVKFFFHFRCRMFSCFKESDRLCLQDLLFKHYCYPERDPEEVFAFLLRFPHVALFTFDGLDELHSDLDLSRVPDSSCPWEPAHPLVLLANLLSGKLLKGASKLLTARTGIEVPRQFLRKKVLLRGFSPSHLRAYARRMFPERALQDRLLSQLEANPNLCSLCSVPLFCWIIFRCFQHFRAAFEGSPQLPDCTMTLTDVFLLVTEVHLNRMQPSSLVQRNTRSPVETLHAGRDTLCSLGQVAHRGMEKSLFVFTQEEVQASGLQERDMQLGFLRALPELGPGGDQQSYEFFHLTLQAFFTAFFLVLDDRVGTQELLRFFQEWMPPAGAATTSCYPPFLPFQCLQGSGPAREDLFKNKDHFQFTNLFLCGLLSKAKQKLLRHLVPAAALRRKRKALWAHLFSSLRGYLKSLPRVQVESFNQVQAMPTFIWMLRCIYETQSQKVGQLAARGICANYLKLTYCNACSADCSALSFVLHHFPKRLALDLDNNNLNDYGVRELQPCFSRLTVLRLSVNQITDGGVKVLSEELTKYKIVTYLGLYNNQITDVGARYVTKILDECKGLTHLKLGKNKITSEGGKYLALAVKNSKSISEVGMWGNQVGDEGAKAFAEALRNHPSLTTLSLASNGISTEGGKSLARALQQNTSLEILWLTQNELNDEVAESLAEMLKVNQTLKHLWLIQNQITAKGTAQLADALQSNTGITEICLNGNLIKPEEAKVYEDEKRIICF

Tumor necrosis factor = Tumor necrosis factor (Homo sapiens, UniProt P01375); assay: TNFa-triggered NF-kB activation inhibitors, SAR follow-up, cell-based, revised (AID 2337); format: functional
HEK293 [14] = assay: cells; format: functional, cell-based; conditions: Homo sapiens; remark: listed apart in the source
HEK293 [15] = assay: cells; conditions: Homo sapiens
[16] = NIH-3T3 fibroblast cytotoxicity, dose response, cytotoxicity control, cell-based, fluorescence, Alamar Blue, secondary assay (AID 2327); format: functional;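 note: NIH-3T3 mouse fibroblasts cultured with fluconazole at 8 µg/mL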
[17] = C. albicans growth with fluconazole, confirmation, fluorescence, retest (AID 2467); format: functional, cell-based
Streptococcus = assay: Group A Streptococcus viability loss, dose response, counter-screen for streptokinase expression inhibitor project, luminescence, BacTiterGlo (AID 1915); format: functional, organism-based;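 note: potency for reduction of bacterial viability or growth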
[18] = tested on: Streptococcus sp. 'group A'; assay: growth inhibition of control SK(-) GAS strain, dose response, counter-screen for streptokinase expression inhibitor project, luminescence, kanamycin, BacTiterGlo, confirmation (AID 1900); format: functional, organism-based
H4 = assay: Luminescence Cell-Based Dose Response HTS to Identify Activators of 5'UTR Stem-Loop Driven Prion Protein mRNA Translation in H4 Neuroglioblastoma Cells. [Related pubchem assays: 1829 (Project Summary), 1814 (Primary HTS)]; format: functional; conditions: Homo sapiens
[19] = Luminescence Cell-Based Dose Response HTS to Identify Activators of Luciferase Translation or Activity in H4 […] Cells. [Related pubchem assays: 1829 (Project Summary), 1814 (Primary HTS)]; format: functional
[20] = Luminescence Cell-Based Dose Confirmation HTS to Identify Activators of 5'UTR Stem-Loop Driven Alpha-Synuclein mRNA Translation in H4 Neuroglioblastoma Cells. [Related pubchem assays: 1829 (Project Summary), 1814 (Primary HTS)]; format: functional
[21] = T. cruzi growth inhibition in host cells, dose response, cell-based, plate reader, dry powder, set 2 (AID 652275); format: functional

Voltage-dependent T-type calcium channel subunit alpha-1H, sequence (O95180 whole entry): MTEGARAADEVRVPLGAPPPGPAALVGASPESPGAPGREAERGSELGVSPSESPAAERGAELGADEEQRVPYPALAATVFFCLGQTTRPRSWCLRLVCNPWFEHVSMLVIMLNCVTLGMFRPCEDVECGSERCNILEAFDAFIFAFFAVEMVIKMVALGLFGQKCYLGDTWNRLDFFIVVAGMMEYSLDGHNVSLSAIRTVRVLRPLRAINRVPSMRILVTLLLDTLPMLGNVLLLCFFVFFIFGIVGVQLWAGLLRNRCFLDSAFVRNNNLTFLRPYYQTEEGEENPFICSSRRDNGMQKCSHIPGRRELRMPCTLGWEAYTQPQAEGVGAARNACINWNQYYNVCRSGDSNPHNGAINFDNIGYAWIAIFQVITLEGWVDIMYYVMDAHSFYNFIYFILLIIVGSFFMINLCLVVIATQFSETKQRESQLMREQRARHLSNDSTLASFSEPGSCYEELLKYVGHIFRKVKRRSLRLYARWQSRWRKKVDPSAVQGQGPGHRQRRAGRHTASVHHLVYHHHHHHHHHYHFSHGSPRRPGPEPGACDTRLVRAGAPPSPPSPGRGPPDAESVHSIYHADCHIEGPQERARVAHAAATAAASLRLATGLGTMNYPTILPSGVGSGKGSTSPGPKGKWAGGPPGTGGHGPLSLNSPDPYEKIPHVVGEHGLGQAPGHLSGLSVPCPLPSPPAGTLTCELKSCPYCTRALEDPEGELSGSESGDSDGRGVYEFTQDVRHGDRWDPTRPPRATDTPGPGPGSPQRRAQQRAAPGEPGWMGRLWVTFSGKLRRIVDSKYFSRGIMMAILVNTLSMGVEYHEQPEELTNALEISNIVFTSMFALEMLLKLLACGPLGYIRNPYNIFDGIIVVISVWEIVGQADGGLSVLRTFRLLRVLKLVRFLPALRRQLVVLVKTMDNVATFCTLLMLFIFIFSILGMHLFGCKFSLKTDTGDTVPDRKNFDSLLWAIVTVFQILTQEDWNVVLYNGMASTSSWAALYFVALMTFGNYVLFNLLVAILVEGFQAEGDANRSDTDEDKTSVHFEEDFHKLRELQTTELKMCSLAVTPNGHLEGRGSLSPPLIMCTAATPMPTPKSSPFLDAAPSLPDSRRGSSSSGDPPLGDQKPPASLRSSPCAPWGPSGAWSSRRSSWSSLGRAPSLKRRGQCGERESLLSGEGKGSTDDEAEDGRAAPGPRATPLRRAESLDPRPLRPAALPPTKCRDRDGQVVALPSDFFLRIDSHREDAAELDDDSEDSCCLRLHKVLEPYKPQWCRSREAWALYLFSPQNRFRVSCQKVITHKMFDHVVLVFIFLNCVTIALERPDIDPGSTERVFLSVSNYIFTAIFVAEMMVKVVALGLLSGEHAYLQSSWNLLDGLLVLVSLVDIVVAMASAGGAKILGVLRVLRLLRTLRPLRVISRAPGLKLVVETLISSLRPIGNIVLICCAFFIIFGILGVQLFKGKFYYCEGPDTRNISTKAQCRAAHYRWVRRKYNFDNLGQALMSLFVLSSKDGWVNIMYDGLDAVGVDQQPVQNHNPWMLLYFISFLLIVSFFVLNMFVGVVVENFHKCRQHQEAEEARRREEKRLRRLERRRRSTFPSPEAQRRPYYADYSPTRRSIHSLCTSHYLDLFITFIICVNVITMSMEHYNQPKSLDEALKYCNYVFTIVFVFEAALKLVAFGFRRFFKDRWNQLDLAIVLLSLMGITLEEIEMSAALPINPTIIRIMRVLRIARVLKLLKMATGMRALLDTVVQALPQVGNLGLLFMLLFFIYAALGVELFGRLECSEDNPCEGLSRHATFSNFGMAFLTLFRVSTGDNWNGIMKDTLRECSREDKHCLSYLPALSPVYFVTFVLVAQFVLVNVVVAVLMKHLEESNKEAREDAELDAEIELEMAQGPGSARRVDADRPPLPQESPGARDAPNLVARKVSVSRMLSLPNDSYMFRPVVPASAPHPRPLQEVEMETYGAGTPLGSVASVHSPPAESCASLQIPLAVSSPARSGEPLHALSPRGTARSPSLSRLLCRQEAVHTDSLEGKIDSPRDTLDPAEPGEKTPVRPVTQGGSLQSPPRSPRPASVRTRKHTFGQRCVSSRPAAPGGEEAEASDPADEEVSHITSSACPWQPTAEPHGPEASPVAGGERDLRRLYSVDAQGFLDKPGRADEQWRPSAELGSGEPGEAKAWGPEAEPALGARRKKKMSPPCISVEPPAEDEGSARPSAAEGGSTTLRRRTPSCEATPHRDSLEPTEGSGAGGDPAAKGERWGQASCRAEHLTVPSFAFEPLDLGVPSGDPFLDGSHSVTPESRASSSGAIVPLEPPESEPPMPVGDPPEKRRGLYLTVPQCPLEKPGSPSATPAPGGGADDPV
Glyceraldehyde-3-phosphate dehydrogenase, sequence (P04406 whole entry): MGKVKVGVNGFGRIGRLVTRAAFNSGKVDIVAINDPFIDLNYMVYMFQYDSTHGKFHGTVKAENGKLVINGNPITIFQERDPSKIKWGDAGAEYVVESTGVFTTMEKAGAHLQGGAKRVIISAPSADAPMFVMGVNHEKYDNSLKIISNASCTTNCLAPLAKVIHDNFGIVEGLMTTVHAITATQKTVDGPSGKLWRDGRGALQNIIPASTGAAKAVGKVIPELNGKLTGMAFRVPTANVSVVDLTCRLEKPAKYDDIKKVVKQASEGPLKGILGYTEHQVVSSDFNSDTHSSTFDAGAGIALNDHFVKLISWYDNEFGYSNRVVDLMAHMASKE
Tumor necrosis factor, sequence (P01375 whole entry): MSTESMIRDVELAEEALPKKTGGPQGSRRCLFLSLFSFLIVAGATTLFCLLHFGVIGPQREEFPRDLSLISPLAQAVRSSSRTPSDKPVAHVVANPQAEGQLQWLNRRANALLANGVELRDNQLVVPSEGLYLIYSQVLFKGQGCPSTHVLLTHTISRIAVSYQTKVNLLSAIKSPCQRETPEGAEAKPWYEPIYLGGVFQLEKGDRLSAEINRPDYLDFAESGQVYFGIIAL
Beta-galactosidase, sequence (Q8VNN2 whole entry): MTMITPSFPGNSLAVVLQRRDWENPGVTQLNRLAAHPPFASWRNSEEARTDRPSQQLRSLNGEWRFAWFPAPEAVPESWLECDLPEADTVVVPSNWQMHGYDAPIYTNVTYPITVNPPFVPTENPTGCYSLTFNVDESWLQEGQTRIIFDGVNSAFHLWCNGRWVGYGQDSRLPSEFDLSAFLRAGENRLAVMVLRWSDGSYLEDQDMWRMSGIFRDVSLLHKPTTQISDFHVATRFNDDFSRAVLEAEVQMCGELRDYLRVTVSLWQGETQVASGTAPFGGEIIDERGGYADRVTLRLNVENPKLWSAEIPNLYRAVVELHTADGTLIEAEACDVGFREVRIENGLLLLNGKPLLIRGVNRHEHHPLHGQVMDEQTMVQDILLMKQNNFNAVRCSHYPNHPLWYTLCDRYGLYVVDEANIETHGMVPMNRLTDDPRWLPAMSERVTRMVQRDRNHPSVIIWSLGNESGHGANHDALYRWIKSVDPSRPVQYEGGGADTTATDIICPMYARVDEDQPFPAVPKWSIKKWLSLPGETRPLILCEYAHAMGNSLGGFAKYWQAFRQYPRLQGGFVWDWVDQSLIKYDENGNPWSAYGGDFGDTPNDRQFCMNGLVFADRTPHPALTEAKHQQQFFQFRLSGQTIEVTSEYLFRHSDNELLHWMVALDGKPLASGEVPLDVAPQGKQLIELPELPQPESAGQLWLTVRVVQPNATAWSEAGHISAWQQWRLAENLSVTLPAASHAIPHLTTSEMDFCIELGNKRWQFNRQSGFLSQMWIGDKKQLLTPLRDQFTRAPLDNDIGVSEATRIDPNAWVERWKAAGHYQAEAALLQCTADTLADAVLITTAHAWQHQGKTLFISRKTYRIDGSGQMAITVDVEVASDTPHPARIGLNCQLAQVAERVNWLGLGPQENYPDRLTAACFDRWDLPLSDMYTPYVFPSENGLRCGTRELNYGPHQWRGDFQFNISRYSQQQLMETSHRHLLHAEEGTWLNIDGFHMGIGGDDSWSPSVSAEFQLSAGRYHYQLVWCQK
Genome polyprotein, sequence (P29990 2492-3391 limits assumed): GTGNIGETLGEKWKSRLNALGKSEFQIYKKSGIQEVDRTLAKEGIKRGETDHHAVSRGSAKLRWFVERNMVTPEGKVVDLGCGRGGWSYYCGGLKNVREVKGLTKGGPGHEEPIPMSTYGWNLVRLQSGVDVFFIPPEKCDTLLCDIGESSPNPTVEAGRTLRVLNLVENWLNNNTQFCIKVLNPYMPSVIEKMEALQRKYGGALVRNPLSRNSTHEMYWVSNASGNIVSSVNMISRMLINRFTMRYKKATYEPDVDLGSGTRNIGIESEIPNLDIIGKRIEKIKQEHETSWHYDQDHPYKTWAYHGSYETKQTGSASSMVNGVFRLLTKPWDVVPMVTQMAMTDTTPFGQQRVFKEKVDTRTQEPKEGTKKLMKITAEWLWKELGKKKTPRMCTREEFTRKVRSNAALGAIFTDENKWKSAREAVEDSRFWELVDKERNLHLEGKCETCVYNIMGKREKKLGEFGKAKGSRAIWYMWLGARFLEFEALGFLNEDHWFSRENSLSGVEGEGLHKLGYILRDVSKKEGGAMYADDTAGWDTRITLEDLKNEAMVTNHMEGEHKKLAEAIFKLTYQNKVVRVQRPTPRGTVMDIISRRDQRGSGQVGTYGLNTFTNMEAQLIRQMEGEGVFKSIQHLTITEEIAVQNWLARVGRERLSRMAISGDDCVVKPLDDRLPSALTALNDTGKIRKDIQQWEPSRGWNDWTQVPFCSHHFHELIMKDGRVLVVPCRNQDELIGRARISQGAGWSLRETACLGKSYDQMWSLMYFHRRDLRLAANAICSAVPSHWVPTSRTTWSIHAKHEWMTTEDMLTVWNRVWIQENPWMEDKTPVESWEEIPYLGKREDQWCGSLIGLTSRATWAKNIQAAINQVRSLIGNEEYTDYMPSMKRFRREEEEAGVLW

Structure (SMILES): Cc1cc([N+](=O)[O-])ccc1NC(=S)NC(=O)Cc1ccccc1
- IC50 (Beta-galactosidase): > 66.6 µM (inactive)

Structure (SMILES): CCOC(=O)C1(Cc2ccccc2)CCN(Cc2c[nH]nc2-c2ccccc2)CC1
- EC50 [1]: 6.68 µM (active)

Structure (SMILES): Cc1cccc(N2C(=O)C(Cl)=C(N(C)C)C2=O)c1
- IC50 [2]: > 50 µM (inconclusive)

Structure (SMILES): CC(=O)NC(c1cc(Cl)c2cccnc2c1O)C1CC1 (stereo not drawn)
- CC50 [3]: 5.47 µM (active)
- AC50 [4]: 3.26 µM (active)
- AC50 (INS1): 1.91 µM (active)

Structure (SMILES): COc1ccc2nc(/C=N/NC(=O)[C@H](C)NC(=O)OC(C)(C)C)ccc2c1
- IC50 (cells [5]): 31.9 µM (active)

Structure (SMILES): Clc1ccc(CN(CC2CCCO2)C(c2cccs2)c2nnnn2C2CCCC2)cc1 (stereo not drawn)
- EC50 [6]: 6.56 µM (active)

Structure (SMILES): CCN(CC)S(=O)(=O)c1cccc(-c2nnc(SCCOc3ccccc3C)o2)c1
- EC50 [6]: 9.91 µM (active)

Structure (SMILES): O=c1oc(CCCO)cc2ccc(C#Cc3ccsc3)cc12
- CC50 [3]: > 40 µM (active)

Structure (SMILES): CSc1ccc(N=Nc2c(C)[nH]n(C)c2=O)cc1
- IC50 (cells [7]): 15.6 µM (active)

Structure (SMILES): O=S(=O)(c1ccc(Cl)cc1)N1CCCC1c1nc2ccccc2s1 (stereo not drawn)
- EC50 [6]: 6.61 µM (active)

Structure (SMILES): CCOc1ccc(-c2cc(C(=O)O)c3ccccc3n2)c(OCC)c1
- IC50 (cells [5]): 19.7 µM (active)
- CC50 [8]: 42 µM (active)

Structure (SMILES): COC(=O)c1ccc(N2CCN(C)CC2)c(NC(=O)COc2ccccc2)c1
- EC50 [1]: 5.96 µM (active)

Structure (SMILES): O=C(N/N=C/c1ccccn1)c1cc([N+](=O)[O-])cc([N+](=O)[O-])c1
- AC50 [9]: 6.54 µM (active)
- IC50 (cells [7]): 40.2 µM (active)

Structure (SMILES): CCOc1cc(/C=N/Nc2ccc(S(=O)(=O)Nc3ccccc3C(=O)O)cc2[N+](=O)[O-])cc(Cl)c1O
- IC50 (Genome polyprotein): 30.4 µM (active)

Structure (SMILES): CCOC(=O)Cc1csc(NC(=O)COc2ccc3ccccc3c2)n1
- EC50 [6]: 2.56 µM (active)

Structure (SMILES): COc1cccc(N2C(=O)C(Cl)=C(N3CCN[C@@H](C)C3)C2=O)c1
- IC50 [2]: > 50 µM (inconclusive)

Structure (SMILES): C=CC/N=c1\scc(-c2ccc(F)cc2)n1/N=C/c1ccccn1
- CC50 [3]: > 40 µM (active)

Structure (SMILES): O=C(CC1C(=O)NCCN1Cc1ccc(-c2ccccc2)cc1)NCCc1ccccn1 (stereo not drawn)
- EC50 [1]: 4.73 µM (active)

Structure (SMILES): O=C(NC1CC1)C1=C[C@H](c2csc3ccccc23)C[C@H](OCc2ccc(CO)cc2)O1
- EC50 [1]: 10.6 µM (active)

Structure (SMILES): COc1ccc(-c2cc(=O)oc3cc(OCC(=O)Nc4ccc(CCO)cc4)ccc23)cc1
- IC50 (HEK293 [10]): > 20 µM (inactive)
- EC50 (HEK293 [11]): 9.26 µM (active)
- IC50 (HEK293 [12]): > 20 µM (inactive)
- IC50 [13]: 5.18 µM (active)
- IC50 (Tumor necrosis factor): > 20 µM (inactive)
- IC50 (HEK293 [14]): > 20 µM (inactive)
- IC50 (HEK293 [15]): > 20 µM (inactive)

Structure (SMILES): CCOC(=O)Cc1c(C)c2c(O)cc(O)cc2oc1=O
- IC50 (cells [5]): 15.1 µM (active)
- CC50 [8]: 47.7 µM (active)

Structure (SMILES): CSc1ncccc1C(=O)Nc1nc2ccc(Oc3ccccc3)cc2s1
- CC50 [3]: > 40 µM (active)

Structure (SMILES): O=C(COc1ccccc1)NNC(=S)NC(=O)c1ccc(Cl)cc1Cl
- EC50 [1]: 4.73 µM (active)
- EC50 [16]: 110 µM (active)
- EC50 [17]: > 38 µM (not active)
- EC50 (Streptococcus): 2.96 µM (active)
- EC50 [18]: 0.623 µM (active)

Structure (SMILES): COc1ccc(C(=O)/C=C/c2cccs2)c(OC(=O)c2cccc([N+](=O)[O-])c2)c1
- CC50 [3]: 38.5 µM (active)
- EC50 (H4): 10.6 µM (active)
- EC50 [19]: 4.7 µM (active)
- EC50 [20]: > 120 µM (not active)

Structure (SMILES): CC(C)N1C[C@@H](CN(C)Cc2ccc(Cl)cc2)Oc2c(NC(=O)c3ccncc3)cc(F)cc2C1=O
- AC50 [21]: 0.00326 µM (active)
